For one test, the system named is anesthetized dog. As to the kind of experiment: anesthetized dog protocol (renal dog screen) measuring renal and cardiovascular parameters. The format is in vivo. More on the design: decreased heart rate / arterial blood pressure: dose or concentration left out as unconfirmed.
Test [1] has as its system spontaneously hypertensive rat (SHR). The experiment in a line: spontaneously hypertensive rat (SHR) protocol. The format is in vivo.
Another test concerns the target D2 (Oryctolagus cuniculus, UniProt G1T1Q0). The experiment in a line: cell-based.

D2, sequence (G1T1Q0 1-443): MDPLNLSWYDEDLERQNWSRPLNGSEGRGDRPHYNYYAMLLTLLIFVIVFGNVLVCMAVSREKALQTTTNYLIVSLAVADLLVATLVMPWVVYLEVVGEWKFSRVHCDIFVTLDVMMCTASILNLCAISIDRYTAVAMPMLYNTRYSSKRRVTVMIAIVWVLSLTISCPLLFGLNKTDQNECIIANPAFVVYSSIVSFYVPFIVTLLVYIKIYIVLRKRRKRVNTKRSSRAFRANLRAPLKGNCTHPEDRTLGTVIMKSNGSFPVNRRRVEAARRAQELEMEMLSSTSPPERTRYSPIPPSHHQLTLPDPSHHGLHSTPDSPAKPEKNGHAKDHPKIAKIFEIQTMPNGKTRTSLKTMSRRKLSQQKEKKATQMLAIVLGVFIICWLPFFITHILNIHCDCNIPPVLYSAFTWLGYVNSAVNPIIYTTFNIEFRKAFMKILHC
Excerpt for anesthetized dog: The prior art dopaminergic agent, dopamine, is used as a positive control.

On to `CCCN(CCC)CCc1ccc(O)c2[nH]c(=O)ccc12` [5-di-n-propylaminoethyl-8-hydroxycarbostyril], for which the renal blood flow entry in the test with anesthetized dog (dog protocol, 3 and 30 pg/kg/min infusion) is listed as “increased renal blood flow”. The systolic hypertension result in test [1] (rat test, 12.5, 25 and 50 mg/kg, i.p.) is “decreased systolic hypertension”.
`CCCN(CCc1ccc(O)cc1)CCc1ccc(O)c2[nH]c(=O)ccc12` [5-[N-n-propyl-N-(p-hydroxyphenethyl)aminoethyl)-8-hydroxycarbostyril] showed a concentration for a half-maximal effect (EC50) on D2 of 12 nM.
With `Cl.NCCc1ccc(O)c2[nH]c(=O)ccc12` [5-aminoethyl-8-hydroxycarbostyril hydrochloride], in the test with anesthetized dog (Canis lupus familiaris, read-out: RVR-ED15), the ED15 stood at 1.8 µg/kg. In the test on anesthetized dog (by infusion, renal dog screen), the arterial blood pressure is -8% and the decreased heart rate is 22.5%. In addition, in test [1] (SHR, 25 mg/kg intraperitoneally administered), the systolic blood pressure entry is “lowered systolic blood pressure”.

As a reminder, the EC50 is the concentration that produces a half-maximal response.

These data come from patent publication EP0125052B1, “Dopaminergic carbostyrils and a process for preparing them” (SMITHKLINE BECKMAN CORPORATION, priority 1983, dated 1984).
